From patent US8937183B2, “Detection of hydrogen peroxide” (Promega Corporation, priority 2011, dated 2015)

Key:
Jurkat cells = test: Detection of reactive oxygen generation in cells treated with menadione or 4-aminobiphenyl, Jurkat; type: cell-based; conditions: for averaged bioluminescence: 60 minutes 37° C.
Method: (§1) In this example, various compounds shown to react with hydrogen peroxide were incubated with cells treated with menadione and 4-aminobiphenyl, two compounds that can generate reactive oxygen species (ROS). Menadione causes the direct production of reactive oxygen within the cell and is a very strong inducer of a ROS effect (Sun, J S et. al. Cell Mol Life Sci (1997) vol 53 pp 967-76). 4-aminobiphenyl is believed to require metabolic conversion to a quinine-like structure before being able to induce the formation of a ROS (Makena, P and Chung, K T. Environ. Mol. Mutagen. (2007), vol 48, pp 404-413).
(§2) A 40 mM solution of 4-aminobiphenyl (Sigma A2898-1g) was made by dissolving 2.5 mg in 375 μl of DMSO (Fluka) to create a 40 mM solution. 50 μl of 4 mg/ml PBI 4458 in DMSO was diluted to 1 ml with HBSS buffer (Invitrogen), and 100 μl added to wells A1 and A2 of a microtiter plate. A 10 μl sample of 40 mM 4-aminobiphenyl was mixed with 190 μl of the remaining PBI 4458 in HBSS, and 60 μl added to wells B1 and B2 and 30 μl to wells C1 and C2. A 10 μl sample of 40 mM menadione in DMSO was mixed with 190 μl of the remaining PBI 4458 in HBSS, and 60 μl added to wells D1 and D2 and 30 μl to E1 and E2. The volume in wells B1 to E2 was then adjusted to 100 μl by addition of remaining PBI 4458 in HBSS.
(§3) 50 μl of 4 mg/ml PBI 4480 in DMSO was diluted to 1 ml with HBSS buffer, and 100 μl placed in wells A3 and A4 of the microtiter plate. A 10 μl sample of 40 mM 4 aminobiphenyl was mixed with 190 μl of the remaining PBI 4480 in HBSS, and 60 μl added to wells B3 and B4 and 30 μl to wells C3 and C4. A 10 μl sample of 40 mM menadione in DMSO was mixed with 190 μl of the remaining PBI 4480 in HBSS, and 60 μl added to wells D3 and D4 and 30 μl added to wells E3 and E4. The volume in wells B3 to E4 was then adjusted to 100 μl by addition of left over PBI 4480 in HBSS.
(§4) 50 μl of 4 mg/ml PBI 3048 in DMSO was diluted to 1 ml with HBSS, and 100 μl added to wells A5 and A6 of the microtiter plate. A 10 μl sample of 40 mM 4 aminobiphenyl was mixed with 190 μl of the remaining PBI 3048 in HBSS, and 60 μl added to wells B5 and B6 and 30 μl added to wells C5 and C6. A 10 μl sample of 40 mM menadione in DMSO was mixed with 190 μl of the remaining PBI 3048 in HBSS, and 60 μl added to wells D5 and D6 and 30 μl added to wells E5 and E6. The volume in wells B5 to E6 was then adjusted to 100 μl by addition of the remaining PBI 3048 in HBSS.
(§5) Two cell culture plates were seeded with cells resuspended in HBSS. One plate contained 20,000 Jurkat cells/well in wells A1-H6. The other plate contained 20,000 HepG2 cells/well in wells A1-H6. Both plates were incubated overnight in DMEM with 10% fetal bovine serum (FBS). The media from the HepG2 cells was removed, discarded, and replaced with 50 μl of HBSS. A 50 μl sample of wells A1-H6 from the plate with the various PBI compounds was transferred to the corresponding wells in the two cell culture plates, and incubated for 60 minutes in a 37° C., 5% CO2 incubator.
(§6) 50 μl of LDR (Example 23) and 25 μl of 1 mM D-cysteine in 100 mM HEPES buffer, pH 7.5 was added to all wells of a new luminometer plate. After incubation, a 25 μl sample of wells A1-H6 containing Jurkat cells was added to wells A1-H6 of the new luminometer plate, and a 25 μl sample of wells A1-H6 containing HepG2 cells was added to wells A7-H12 of the new luminometer plate. The plate was incubated at room temperature for 15 minutes, and bioluminescence detected on a GloMax® luminometer.
(§7) The bioluminescence from the duplicate samples was averaged and compared to the values of the cells in A row (Table 4).

HepG2 cells = test: Detection of reactive oxygen generation in cells treated with menadione or 4-aminobiphenyl, HepG2; type: cell-based; conditions: for response of signal to menadione or 4-aminobiphenyl (in words): HepG2; for averaged bioluminescence: 60 minutes 37° C.
Method: as §1, §2, §3, §4, §5, §6, §7

SMILES | response of signal to menadione or 4-aminobiphenyl (in words) (Jurkat cells) | averaged bioluminescence (Jurkat cells; 300 μM 4ABP) | averaged bioluminescence (Jurkat cells; 300 μM Menadione) | averaged bioluminescence (Jurkat cells; 600 μM 4ABP) | averaged bioluminescence (Jurkat cells; 600 μM Menadione) | averaged bioluminescence (Jurkat cells; No Effector) | response of signal to menadione or 4-aminobiphenyl (in words) (HepG2 cells) | averaged bioluminescence (HepG2 cells; HepG2, 300 μM 4ABP) | averaged bioluminescence (HepG2 cells; HepG2, 300 μM Menadione) | averaged bioluminescence (HepG2 cells; HepG2, 600 μM 4ABP) | averaged bioluminescence (HepG2 cells; HepG2, 600 μM Menadione) | averaged bioluminescence (HepG2 cells; HepG2, No Effector)
CC1(C)OB(c2ccc(COc3ccc4nc(C#N)sc4c3)c3ccccc23)OC1(C)C [PBI 4480, 6-((4-(4,4,5,5-tetramethyl-1,3,2-dioxaborolan-2-yl)naphthalen-1-yl)methoxy)benzo[d]thiazole-2-carbonitrile] | do not show as clear of a response | 29,810 | 29,806 | 29,277 | 27,535 | 34,646 | do not show as clear of a response | 20,574 | 20,788 | 21,023 | 20,509 | 19,627
CC1(C)OB(/C=C/COc2ccc3nc(C#N)sc3c2)OC1(C)C [PBI 4458, (E)-6-((3-(4,4,5,5-tetramethyl-1,3,2-dioxaborolan-2-yl)allyl)oxy)-benzo[d]thiazole-2-carbonitrile] | above those for the cells that were not given any effector | 213,059 | 742,717 | 195,096 | 895,269 | 174,206 | above those for the cells that were not given any effector | 163,031 | 622,230 | 169,952 | 728,404 | 117,111
O=C(O)C1CSC(c2nc3ccc(OCc4ccc(B(O)O)cc4)cc3s2)=N1 (stereo not drawn) [PBI 3048] | do not show as clear of a response | 363,182 | 434,344 | 366,188 | 403,013 | 413,753 | do not show as clear of a response | 364,353 | 426,802 | 383,471 | 408,177 | 407,917
